Results taken from US20260062394A1, “PROCESSES FOR PREPARING OXAZOLIDINONE COMPOUNDS” (Merck Sharp & Dohme LLC, priority 2022, published 2026).

Assay: relative stability and turnover of the crystalline forms
Assay type: physicochemical
Details: for thermodynamic stability of the crystalline form: solid form, Form II statement applies to the 5-70° C. range
Source text: Alternatively, Form I can also be produced by solvent/anti solvent crystallizations where the solvent is (but limited not) DMSO or acetone and the antisolvent is (but not limited to) water, hexanes or heptanes. Form I can also be produced by slow evaporation of clear solutions of crude Example 1 in volatile solvents where the volatile solvent is (but not limited to) dichloromethane, acetone, or acetonitrile. Form I was characterized using PXRD, DSC, TGA and SCXRD.
Form II can be produced by recrystallization of Form I in a variety of organic solvents or mixtures thereof where the solvent(s) is (are) (but not limited to) ethyl acetate, isopropanol, acetone, dichloromethane, acetonitrile, tetrahydrofuran, water, ethanol, 2-methyl tetrahydrofuran, toluene, methanol, dimethyl formamide or cyclopentyl methyl ether. Form II was characterized using PXRD, DSC and TGA.
Type C can be produced by recrystallization of either Form I, Form II or Form III in solvent/antisolvent systems where the solvent is (but not limited to) acetone or dichloromethane and the antisolvent is (but not limited to) n-hexane or n-heptane.
Form III was produced by recrystallization of Type C in the solid state at 150° C. and under a N2 flow. Form III can also be formed in some instances from solution in acetone/n-heptane crystallizations. […] Form III was characterized using PXRD, DSC, TGA and SCXRD.

COC(=O)NC[C@H]1CN(c2cc(F)c(N3CCS(=O)(=O)CC3)c(F)c2)C(=O)O1 [Form I, methyl({(5S)-3-[4-(1,1-dioxo-1λ^6-thiomorpholin-4-yl)-3,5-difluorophenyl]-2-oxo-1,3-oxazolidin-5-yl}methyl)carbamate]
thermodynamic stability of the crystalline form: kinetic phase and will recrystallize into Form II with time

COC(=O)NC[C@H]1CN(c2cc(F)c(N3CCS(=O)(=O)CC3)c(F)c2)C(=O)O1 [Form II, methyl ({(5S)-3-[4-(1,1-dioxo-1λ^6-thiomorpholin-4-yl)-3,5-difluorophenyl]-2-oxo-1,3-oxazolidin-5-yl}methyl)carbamate]
thermodynamic stability of the crystalline form: most thermodynamically stable form in the 5-70 °C range

COC(=O)NC[C@H]1CN(c2cc(F)c(N3CCS(=O)(=O)CC3)c(F)c2)C(=O)O1 [Form III, methyl ({(5S)-3-[4-(1,1-dioxo-1λ^6-thiomorpholin-4-yl)-3,5-difluorophenyl]-2-oxo-1,3-oxazolidin-5-yl}methyl)carbamate]
thermodynamic stability of the crystalline form: Quick turnovers to more thermodynamically stable phases Form I or Form II are readily observed within minutes to hours

COC(=O)NC[C@H]1CN(c2cc(F)c(N3CCS(=O)(=O)CC3)c(F)c2)C(=O)O1 [Type C, methyl ({(5S)-3-[4-(1,1-dioxo-1λ^6-thiomorpholin-4-yl)-3,5-difluorophenyl]-2-oxo-1,3-oxazolidin-5-yl}methyl)carbamate]
lifetime in solution before turnover into a more thermodynamically stable phase (in solution): a few hours
thermodynamic stability of the crystalline form: highly metastable
